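Following 48 hours of exposure in 96-well plates, responses at five concentrations were used to interpolate endpoints linearly. GI50 is the concentration that inhibits growth by half.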 The source made the active and inactive calls. No stated cut-off is given here; in the data, active = GI50 up to about 1.1 µM and inactive = higher.
Experiments:
Assay in all cases: inhibition of tumour cell growth, NCI panel, 48 h
[1] = system: 786-0
[2] = system: A498
[3] = system: A549
[4] = system: ACHN
[5] = system: BT-549
[6] = system: CAKI-1
[7] = system: CCRF-CEM
[8] = system: COLO 205
[9] = system: DU-145
[10] = system: EKVX
[11] = system: HCC 2998
[12] = system: HCT-116
[13] = system: HCT-15
[14] = system: HL-60
[15] = system: HOP-62
[16] = system: HOP-92
[17] = system: HT-29
[18] = system: Hs-578T
[19] = system: IGROV-1
[20] = system: K562
[21] = system: KM12
[22] = system: LOX IMVI
[23] = system: M14
[24] = system: MCF7
[25] = system: MDA-MB-231
[26] = system: MDA-MB-435
[27] = system: MDA-N
[28] = system: MOLT-4
[29] = system: NCI-H226
[30] = system: NCI-H23
[31] = system: NCI-H460
[32] = system: NCI-H522
[33] = system: NCI/ADR-RES
[34] = system: OVCAR-3
[35] = system: OVCAR-5
[36] = system: OVCAR-8
[37] = system: PC-3
[38] = system: RPMI-8226
[39] = system: SF-268
[40] = system: SF-295
[41] = system: SF-539
[42] = system: SK-MEL-28
[43] = system: SK-MEL-2
[44] = system: SK-MEL-5
[45] = system: SK-OV-3
[46] = system: SN12C
[47] = system: SNB-19
[48] = system: SNB-75
[49] = system: SR
[50] = system: SW-620
[51] = system: T47D
[52] = system: TK-10
[53] = system: U-251
[54] = system: UACC-257
[55] = system: UACC-62
[56] = system: UO-31
[57] = system: Malme-3M
[58] = system: OVCAR-4
[59] = system: RXF 393

Compound: O=C1c2cc(O)c(O)cc2O[C@H](c2ccc(O)c(O)c2)[C@H]1O
- GI50 [1]: > 100 µM (inactive)
- GI50 [2]: > 100 µM (inactive)
- GI50 [3]: > 100 µM (inactive)
- GI50 [4]: > 100 µM (inactive)
- GI50 [5]: > 100 µM (inactive)
- GI50 [6]: > 100 µM (inactive)
- GI50 [7]: 68.4 µM (inactive)
- GI50 [8]: > 100 µM (inactive)
- GI50 [9]: > 100 µM (inactive)
- GI50 [10]: > 100 µM (inactive)
- GI50 [11]: > 100 µM (inactive)
- GI50 [12]: > 100 µM (inactive)
- GI50 [13]: > 100 µM
- GI50 [14]: > 100 µM (inactive)
- GI50 [15]: 80.7 µM (inactive)
- GI50 [16]: > 100 µM (inactive)
- GI50 [17]: > 100 µM (inactive)
- GI50 [18]: > 100 µM (inactive)
- GI50 [19]: > 100 µM (inactive)
- GI50 [20]: > 100 µM (inactive)
- GI50 [21]: > 100 µM (inactive)
- GI50 [22]: > 100 µM (inactive)
- GI50 [23]: > 100 µM (inactive)
- GI50 [24]: > 100 µM (inactive)
- GI50 [25]: > 100 µM (inactive)
- GI50 [26]: > 100 µM (inactive)
- GI50 [27]: > 100 µM (inactive)
- GI50 [28]: > 100 µM (inactive)
- GI50 [29]: 85.1 µM (inactive)
- GI50 [30]: 45.4 µM (inactive)
- GI50 [31]: 49.7 µM (inactive)
- GI50 [32]: > 100 µM (inactive)
- GI50 [33]: > 100 µM (inactive)
- GI50 [34]: > 100 µM (inactive)
- GI50 [35]: > 100 µM (inactive)
- GI50 [36]: > 100 µM (inactive)
- GI50 [37]: > 100 µM (inactive)
- GI50 [38]: > 100 µM (inactive)
- GI50 [39]: > 100 µM (inactive)
- GI50 [40]: > 100 µM (inactive)
- GI50 [41]: > 100 µM (inactive)
- GI50 [42]: > 100 µM (inactive)
- GI50 [43]: > 100 µM (inactive)
- GI50 [44]: > 100 µM (inactive)
- GI50 [45]: > 100 µM (inactive)
- GI50 [46]: > 100 µM (inactive)
- GI50 [47]: > 100 µM (inactive)
- GI50 [48]: > 100 µM (inactive)
- GI50 [49]: > 100 µM (inactive)
- GI50 [50]: > 100 µM (inactive)
- GI50 [51]: > 100 µM (inactive)
- GI50 [52]: > 100 µM (inactive)
- GI50 [53]: > 100 µM (inactive)
- GI50 [54]: 98.9 µM (inactive)
- GI50 [55]: > 100 µM (inactive)
- GI50 [56]: > 100 µM (inactive)

Compound: C[N+]12C=CC=C1C(N1CCCC1)c1sc(-c3ccc(Cl)cc3)cc12 (stereo not given)
- GI50 [1]: 15.4 µM (inactive)
- GI50 [2]: 18.8 µM (inactive)
- GI50 [3]: 28.6 µM (inactive)
- GI50 [4]: 46 µM (inactive)
- GI50 [5]: 10.3 µM (inactive)
- GI50 [6]: > 100 µM (inactive)
- GI50 [7]: 17.5 µM (inactive)
- GI50 [8]: 16.9 µM (inactive)
- GI50 [9]: 16.9 µM (inactive)
- GI50 [10]: 22.6 µM (inactive)
- GI50 [11]: 15.7 µM (inactive)
- GI50 [12]: 16.1 µM (inactive)
- GI50 [13]: 30.5 µM
- GI50 [15]: 17.5 µM (inactive)
- GI50 [17]: 17.4 µM (inactive)
- GI50 [18]: 22.1 µM (inactive)
- GI50 [19]: 16.9 µM (inactive)
- GI50 [21]: 17 µM (inactive)
- GI50 [22]: 16 µM (inactive)
- GI50 [23]: 17.1 µM (inactive)
- GI50 [24]: 14.7 µM (inactive)
- GI50 [25]: 18.3 µM (inactive)
- GI50 [26]: 15.7 µM (inactive)
- GI50 [27]: 15.8 µM (inactive)
- GI50 [28]: 16.9 µM (inactive)
- GI50 [57]: 15.6 µM (inactive)
- GI50 [29]: 17 µM (inactive)
- GI50 [31]: 18.1 µM (inactive)
- GI50 [32]: 10.4 µM (inactive)
- GI50 [33]: 36.9 µM (inactive)
- GI50 [34]: 13.6 µM (inactive)
- GI50 [58]: 18.2 µM (inactive)
- GI50 [35]: 19.2 µM (inactive)
- GI50 [36]: 16.9 µM (inactive)
- GI50 [37]: 16.3 µM (inactive)
- GI50 [38]: 10.6 µM (inactive)
- GI50 [59]: 17.9 µM (inactive)
- GI50 [39]: 17.1 µM (inactive)
- GI50 [40]: 20.3 µM (inactive)
- GI50 [42]: 17.2 µM (inactive)
- GI50 [43]: 8.39 µM (inactive)
- GI50 [44]: 17.9 µM (inactive)
- GI50 [45]: 18.7 µM (inactive)
- GI50 [46]: 13.7 µM (inactive)
- GI50 [47]: 13.6 µM (inactive)
- GI50 [48]: 11.3 µM (inactive)
- GI50 [49]: 11.6 µM (inactive)
- GI50 [50]: 15.9 µM (inactive)
- GI50 [51]: 10.6 µM (inactive)
- GI50 [52]: 19.6 µM (inactive)
- GI50 [53]: 12.1 µM (inactive)
- GI50 [54]: 15.5 µM (inactive)
- GI50 [55]: 15.1 µM (inactive)
- GI50 [56]: 33 µM (inactive)

From ChEMBL document CHEMBL1201862, “PubChem BioAssay data set” (2004)
